Data published in patent publication US20150087722A1, “TREATMENT FOR BREAST TUMOR CELL METASTASIS” (China Medical University, priority 2012, published 2015).

Legend:
[1] = test system: MMP-9 and MMP2 generated by cells induced by TNF-α; assay: Zymography enzyme activity assay of cells stimulated by TNF-α; type: cell-based; conditions: 20 μM, 10 ng/mL TNF-α
Experimental: In the Zymography enzyme activity assay, the cells (1×10^6) were planted in a 6-well plate. The next day after the cells were adhered to the wall, the cells were cultured in a serum free DMEM culture medium at an atmosphere of 5% CO2 in an incubator at 37° C. for 24 h. The compound II in different doses were added into the DMEM culture medium. In other test groups, the compound I was added, TNF-α/TGF-β were added or the compound I and TNF-α/TGF-β were added into the DMEM culture medium, wherein the concentration of compound I and TNF-α/TGF-β were […] and 10 ng/ml, respectively. The cells were cultured in the culture medium for 2 h and then washed with PBS. The cell culture medium was putted into a microcentrifuge tube and centrifuged for 10 min at 1500 rpm. The supernatant was taken to perform a protein gel electrophoresis (SDS-PAGE), so as to separate the proteins. Afterwards, the Gelatin or Casein was regarded as the substrate to analysis the enzyme activity of the proteins. Referring to FIG. 20, the Zymography enzyme activity assay was performed to detect the effect of the compound II on the enzyme activity of MMP-9 and MMP2 generated by cells induced and stimulated by 10 ng/mL TNF-α. The Zymography enzyme activity assay was described as the test example 4-1. […] Cells in the test groups included no the compound II. […]

[2] = test system: E-cadherin and Vimentin in cells of tumor inoculated nude mice; assay: immunochemistry staining of E-cadherin and Vimentin in tumors of nude mice; type: in vivo; conditions: 0.75 mg/Kg everyday
Experimental: ICC includes embedding the tumor cells in paraffin and slicing the embedded cells into slides having a thickness of […] by a slicer, deparaffinizing, rehydrating and renaturating, picking the slide out and putting the slide into the primary antibody E-cadherin; reacting for 1.5 h and washing the slide for three times with PBS, reacting with the secondary antibody for 30 min and washing the slide for three times with PBS, staining the slide with 3′,3′-diaminobenzendine (DAB) at a ratio of 1:30, and the slide was mounted with Entellanz. The expression amount of signaling-related proteins in the cells of tumor inoculated nude mice was detected by an immunochemistry staining method. In this test the expression of E-cadherin and Vimentin was particularly detected. Immunochemistry staining method and the quantitative method thereof were described as in the test example 2-2, and it is not illustrated any further. FIG. 29 illustrates photomicrographs of expression results of signaling-related proteins in the cells of tumor inoculated nude mice after the cells were stained through the immunochemistry staining method. FIGS. 30 and 31 were respective quantitative results of primary antibody reaction.

[3] = test system: Normal Keratinocyte Cell (HaCaT cell strain); assay: MTT cell viability assay; type: cell-based; conditions: Homo sapiens
[4] = test system: EMT-related proteins in breast tumor cells MDA-MB-231; assay: western blotting of EMT-related proteins; type: cell-based, human; conditions: MDA-MB-231, 0.5, 1 and 2 μM, 24 h, with dose increasing
Experimental: FIG. 2A illustrates the expression results of EMT-related proteins in breast tumor cells MDA-MB-231 after the breast tumor cells MDA-MB-231 have been respectively cultured under compound II having concentrations of 0, 0.5, 1 and 2 μM for 24 h; and FIG. 2B illustrates the expression results of EMT-related proteins in breast tumor cells MCF-7 after the breast tumor cells MCF-7 have been respectively cultured under the compound II having concentrations of 0, 10, 15 and 20 μM for 24 h. FIG. 3A illustrates the western blotting results of EMT-related proteins in the breast tumor cells MDA-MB-468, where the breast tumor cells MDA-MB-468 are treated with the compound I having concentrations of 0, 0.5, 1 and 2 μM for 24 h, and FIG. 3B illustrates the western blotting results of EMT-related proteins in the breast tumor cells MDA-MB-435, where the breast tumor cells MDA-MB-435 are treated with the compound I having concentrations of 0, 2.5, 5 and 7.5 μM for 24 h. […] Then luminescence image equipment was used, where the PVDF was placed onto a black metal plate by a plastic pincer and the face including protein was upwards, a 1:1 mixed Chemiluminesent Substrate was added into the membrane and the exposure time depends on the fluorescence intensity of antibodies. […]

Structure (SMILES): COC1=C(OC)C(=O)C(C)=C(C)C1=O [compound II]
- enzyme activity of MMP2 [1]: no enzyme activity
- expression amount of proteins used for facilitating tumor proliferation in tumor tissues [2]: low
- expression amount of proteins used for inhibiting tumor proliferation in tumor tissues [2]: high
- IC50 [3]: 35.2 µM
- expression amount of E-cadherin, occludin and ICAM [4]: increased
- expression amount of proteins facilitating tumor cell proliferation (Twist, Snail, vimentin, β-catenin, VEGF) [4]: decreased
